The results in this text go back to patent US20090018106A1, “INTRAVENOUS FORMULATIONS OF PYRIDOXAL 5'- PHOSPHATE AND METHOD OF PREPARATION” (Medicure International Inc., priority 2005, published 2009).

“Also recorded” adds a separate entry of the source.

One data set can be described thus: clinical. Further details: species or system human. The following applies: in vivo; for AUC: AUC0-τ; for half-life: T1/2 el. How it is done: (§1) Data sets analyzed—Six (6) healthy, adult non-smokers were administered intravenously a single daily dose of 10 mg/kb of P5P for four consecutive days and completed the study. In accordance with the study protocol, data from all subjects who completed the study were used for pharmacokinetic and statistical analysis.
Analytical Methods—Plasma and urine samples were used for analysis. P5P, PAL, and PA levels were determined by HPLC/FLD. The quantitation level was 5 ng/mL for plasma and 100 ng/mL for urine. The sample analysis calibration curve range was 5 ng/mL to 5000 ng/mL for plasma and 100 ng/mL to 50,000 ng/mL for urine.
When the difference exceeded this time limit, the actual sampling times (rounded off to three decimal digits) were used to calculate pharmacokinetic parameters except for pre-dose samples, which were always reported as zero (0.000), regardless of time deviations. Scheduled sampling times are presented in concentration tables and graphs of the statistical section of the report.
Pharmacokinetic analyses (non-compartmental and compartmental) were performed at SFBC Anapharm. Pharmacokinetic parameters were calculated using either Bioequiv (release 3.40) or WinNonLin™ (release 4.0.1). Bioequiv is proprietary software developed and tested for bioequivalence studies at SFBC Anapharm. This software performs non-compartmental analyses of pharmacokinetic parameters and statistical analyses (via SAS release 6.12) according to FDA, HPFB and BMEA guidance.
The mean, standard deviation (SD), coefficient of variation (CV (%)) and range (min. and max.) were calculated for plasma concentrations of P5P (both baseline corrected and uncorrected), PAL and PA for each sampling time and treatment.
For the non-compartmental pharmacokinetic analyses the mean. SD, CV (%). range (min. and max.), median and interquartile range were calculated for the AUC0-t, (ng·h/mL), AUC0-t (ng·h/mL), AUC0-inf (ng·h/mL), Cmax (ng/mL), Cmin (ng/mL), Cavg (ng/mL), Fl(%), Ae0-t (ng), AUC^t/inf (%), Tmax (h), T1/2 el (h), Kel (h^−1), TLIN (h), LQCT (h). CLT (L/h), CLR (L/h). Vβ (L), MRT (h) and Accumulation ratio. The calculation of these pharmacokinetic parameters is explained below.
Cmax the maximum observed concentration, and Tmax, the time to reach that peak concentration, were determined for each subject and for each analyte. For Day 4 data, Cmin the minimum observed concentration was determined for each subject and for each analyte and Cavg was calculated as AUC0-τ/τ.
Percentage of Fluctuation—For Day 4 data, the peak-through percentage of fluctuation over one dosing interval (Fl(%)) was calculated as: 100*([Cmax−Cmin]/Cavg)
Half-Life and Elimination Rate Constant—To calculate the elimination rate constant (Kel), regression analyses were performed on the natural log(Ln) of plasma concentration values (y) versus time (x). Calculations were made between a time point where log-linear elimination phase begins (TLIN) and the time at which the last concentration above the limit of quantification (LQCT) occurred. The Kel was taken as the slope multiplied by (−1) and the apparent half-life (T1/2 el) as (In 2)/Kel.
TLIN and LQCT—TLIN, the time point where In-linear Kel calculation begins, and LQCT, the sampling time of the last quantifiable concentration used to estimate the Kel were determined by the scientist (according to SFBC Anapharm's standard operating procedures) for each subject and for each treatment. At least 4 non-zero observations during the terminal elimination phase were used to calculate the Kel. A minimum of 3 observations were used if less than 4 observations were available.
Areas Under the Concentration-Time Curves—AUC0-t was calculated using the linear trapezoidal rule from time 0.000 h until the last non-zero concentration.
AUC0-τ was calculated using the linear trapezoidal rule from time 0.000 h until 24.0 h.
The AUC0-inf was calculated as: […]

Data set [1] in a line: Safety evaluation of once daily intravenous 10 mg/kg P5P for four days (Example Four). Type of data set: in vivo, human. How it is done:
as §1
Safety Methods—The safety parameters investigated in this study were: adverse events, vital sign measurements, ECGs, physical examination and standard laboratory evaluations.

The nature of data set [2]: Cumulative urinary excretion after single intravenous dose of P5P (Example Three). The data set is classed as in vivo, human. The following applies: for Cumulative Urinary Excretion as Percent of the Dose: Percent (CV %). The method, then:
P5P, pyridoxal, and 4-pyridoxic acid were evaluated in both plasma and urine over a 24 hour interval following either intravenous or oral dosing. The results are set out below in Tables 2 and 3. The urinary excretion of the unchanged P5P is negligible. Less than 0.5% of the administered dose was found as P5P in the urine (Table 10). Similarly, very little of the dose was excreted in urine as PAL, between approximately 2 to 3% of the total dose (Table 10). PA represented the largest amounts found in urine. Over a 24-hour interval, between 30% and 52% of the given dose was excreted in urine as 4-pyridoxic acid.

Data set [3] in a line: Safety and tolerability of single intravenous doses of P5P (Example Three). The data set is classed as in vivo, human. How it is done:
Methodology—This was a single-blind, single-dose escalation, non-randomized, 4-phase, non-crossover study designed to evaluate the safety and tolerability of P5P intravenous injectable solution at doses of 1, 5, 10, 20 mg/kg, administered to four groups of healthy male and female subjects under fasting conditions and to estimate pharmacokinetic parameters of P5P.
Safety data were collected for each subject throughout the study by recording vital signs, ECGs and reported adverse events.
Primary Endpoint—Safety Parameters—The safety parameters investigated in this study were vital signs measurements (blood pressure, pulse rate), ECG measurements (1, 2 and 12 hours post-dose), platelet function testing, and severity and causality of adverse events experienced by subjects during the study period and laboratory assessments (clinical chemistry, hematology, urinalysis).

Where [4] appears, read: Group 1, dose of P5P 1 mg/1 kg, single iv.
The mark [5] stands for this setting: Group 3, P5P 10 mg/kg single iv.
[6] abbreviates: Group 4, dose of P5P, single iv.

The Tmax is the time from dosing to the highest level. For orientation: AUC(0-inf) means total exposure, with the tail of the curve extrapolated. Lower therefore signals low exposure. As usually defined, the AUC(0-t) is the area under the concentration-time curve up to a stated or last time point. A lower AUC(0-t) goes with less exposure. As a reminder, the AUC is the area under the concentration-time curve, a measure of exposure. A high value points to more exposure. As usually defined, the clearance is a measure of how efficiently the substance is removed, as volume per time. A low value points to inefficient removal. The term Cmax denotes the peak of the concentration-time curve. As a reminder, the MRT is a mean duration of stay, worked out from the concentration-time curve. For orientation: half-life means the time in which the quantity being followed falls by half. Low values mean rapid decline, high ones slow decline. As to `Cc1ncc(COP(=O)(O)O)c(C=O)c1O` [P5P, Pyridoxal 5′-phosphate, reference compound], the Tmax in “clinical” (human, Tmax) was 0.067 h. In addition, in “clinical” (human, iv, 10 mg/kg), the AUC0-τ was determined as 303.39372 µg·h/mL, the Tmax amounted to 0.081 h, the AUC was determined as 303 µg·h/mL and the MRT amounted to 3.4 h. In “clinical” (human, iv, 10 mg/kg), this compound showed a half-life of 5.14 h. For the same compound, in the data set “clinical” (human, iv, 10 mg/kg, AUC0-inf), the AUC(0-inf) is 283 µg·h/mL. In “clinical” (human, iv, 10 mg/kg, AUC0-t), this compound gave an AUC(0-t) of 278 µg·h/mL. This compound also had a clearance in the data set “clinical” (human, iv, 10 mg/kg, CLτ (text: CLT, total body clearance)) of 42.5 mL/min. Besides, in “clinical” (human, iv, 10 mg/kg, Cmax), the peak level (Cmax) was 191 µg/mL. Also, the Tmax in the data set “clinical” (human, iv, 10 mg/kg, Tmax) was 0.089 h. Further, the “ANOVA, difference between treatment days” value in the data set “clinical” was “did not detect any statistically significant difference”. In addition, in data set [1] (10 mg/kg iv once daily, 4 days), the “clinically significant elevated white blood cells (WBC) in urine (pyuria)” value is “observed for two subjects”; the diarrhea or vomiting entry is given as “No diarrhea or vomiting was reported”; the overall safety profile entry is “No serious, severe, or significant adverse events; also recorded: well tolerated with no serious or lasting treatment related effects”. In data set [1] (1 subject, 10 mg/kg iv once daily, 4 days), the “abnormal taste in the mouth” value is 16.7%. In data set [1] (2 subjects, 10 mg/kg iv once daily, 4 days), the “dizziness (feels dizzy and dizziness)” value is 33.3 % of subjects. Also, in data set [1] (3 subjects, 10 mg/kg iv once daily, 4 days), the nausea is recorded as 50.0 % of subjects. The “inflammation at injection site” value in data set [1] (3 subjects, judged unrelated to the study medication) is reported as 50.0 % of subjects. In addition, the total adverse events in data set [1] (six subjects, 10 mg/kg iv once daily, 4 days) is 40. Further, in data set [2] (setting [4]), the “Cumulative Urinary Excretion as Percent of the Dose” value is given as 0.06 (161) Percent. In addition, the “Cumulative Urinary Excretion as Percent of the Dose” value in data set [2] (Group 2, P5P 5 mg/kg single iv) is 0.08 (96) Percent. In addition, the “Cumulative Urinary Excretion as Percent of the Dose” value in data set [2] (setting [5]) is on record as 0.02 (167) Percent. Also, the “Cumulative Urinary Excretion as Percent of the Dose” value in data set [2] (setting [6]) is 0.26 (73) Percent. Besides, the “part of the administered dose found in urine” value in data set [2] (single iv P5P 1-20 mg/kg, 24-hour interval) is on record as “Less than 0.5%”. For the same compound, the safety and tolerability result in data set [3] (single iv dose, doses up to 20 mg/kg) was “safe and well tolerated”. The “common side effects observed” value in data set [3] (single iv doses 1-20 mg/kg) was “nausea, vomiting and stomach upset”.

Consider `Cc1ncc(CO)c(C(=O)O)c1O` [PA, 4-pyridoxic acid], for which, in “clinical” (human), the “Ratio of LS Means, AUC0-inf” value is given as 99.47%; the “Ratio of LS Means, AUC0-t” value is recorded as 99.75%; the “Ratio of LS Means, Cmax” value was 97.17%. Moreover, in “clinical” (human, iv, 10 mg/kg), the AUC(0-inf) was determined as 21.09795 µg·h/mL, the exposure AUC(0-t) is 20.7048 µg·h/mL, the peak concentration (Cmax) amounted to 4.238 µg/mL and the time of peak concentration (Tmax) is listed as 0.528 h. In “clinical” (human, iv, 10 mg/kg), this compound had an AUC of 21.2 µg·h/mL, an MRT of 3.85 h and a half-life of 2.3 h. The compound further registered an AUC(0-inf) in “clinical” (human, iv, 10 mg/kg, AUC0-inf) of 21.2 µg·h/mL. The compound also yielded an area under the curve AUC(0-t) in the data set “clinical” (human, iv, 10 mg/kg, AUC0-t) of 20.7 µg·h/mL. The compound also came in with a peak concentration (Cmax) in “clinical” (human, iv, 10 mg/kg, Cmax) of 4.36 µg/mL. Moreover, in the data set “clinical” (human, iv, 10 mg/kg, Tmax), the Tmax is 0.611 h. Moreover, the “ANOVA, difference between treatment days” value in “clinical” is “did not detect any statistically significant difference”. Also, the “Cumulative Urinary Excretion as Percent of the Dose” value in data set [2] (setting [4]) was 52.25 (28) Percent. Also, the “Cumulative Urinary Excretion as Percent of the Dose” value in data set [2] (Group 2, P5P 5 mg/kg single iv) is recorded as 47.18 (32) Percent. In addition, the “Cumulative Urinary Excretion as Percent of the Dose” value in data set [2] (setting [5]) is on record as 29.78 (32) Percent. For the same compound, the “Cumulative Urinary Excretion as Percent of the Dose” value in data set [2] (setting [6]) was 40.55 (54) Percent.

Turning to `Cc1ncc(CO)c(C=O)c1O` [PAL, pyridoxal], in the data set “clinical” (human), the “ANOVA, difference between treatment days” value is “statistically significant difference between treatment days was detected using ANOVA for In-transformed AUC0-t, and AUC0-inf but not for Cmax”; the “Ratio of LS Means, AUC0-inf” value amounted to 133.70%; the “Ratio of LS Means, AUC0-t” value amounted to 132.83%; the “Ratio of LS Means, Cmax” value is recorded as 101.45%. In addition, in “clinical” (human, iv, 10 mg/kg), the AUC(0-inf) is 30.07745 µg·h/mL, the exposure AUC(0-t) was determined as 29.68294 µg·h/mL, the Cmax was found to be 6.902 µg/mL and the Tmax came out at 0.691 h. In “clinical” (human, iv, 10 mg/kg), this compound had an AUC of 29.7 µg·h/mL, an MRT of 4.06 h and a half-life of 3.4 h. In the data set “clinical” (human, iv, 10 mg/kg, AUC0-inf), this compound had an AUC(0-inf) of 22.4 µg·h/mL. Besides, in the data set “clinical” (human, iv, 10 mg/kg, AUC0-t), the exposure AUC(0-t) was 22.3 µg·h/mL. For the same compound, the peak concentration (Cmax) in the data set “clinical” (human, iv, 10 mg/kg, Cmax) amounted to 7.63 µg/mL. The Tmax in the data set “clinical” (human, iv, 10 mg/kg, Tmax) is 0.525 h. Also, the “Cumulative Urinary Excretion as Percent of the Dose” value in data set [2] (setting [4]) is listed as 1.93 (101) Percent. For the same compound, in data set [2] (Group 2, P5P 5 mg/kg single iv), the “Cumulative Urinary Excretion as Percent of the Dose” value is reported as 3.00 (37) Percent. In addition, in data set [2] (setting [5]), the “Cumulative Urinary Excretion as Percent of the Dose” value is given as 2.73 (20) Percent. In addition, in data set [2] (setting [6]), the “Cumulative Urinary Excretion as Percent of the Dose” value is given as 2.46 (33) Percent.
